The record followed here is article PMC4389443 (Respiratory Research, 2015).

The test system of data set [1] is HepG2 cells. Description: Cell toxicity in HepG2 cells. Format: cell-based. The following applies: highest concentration tested 100 μM.
Data set [2] has as its target T1, Recombinant retina specific amine oxidase (AOC2) (Homo sapiens, UniProt O75106).
T1 sequence (O75106 1-756): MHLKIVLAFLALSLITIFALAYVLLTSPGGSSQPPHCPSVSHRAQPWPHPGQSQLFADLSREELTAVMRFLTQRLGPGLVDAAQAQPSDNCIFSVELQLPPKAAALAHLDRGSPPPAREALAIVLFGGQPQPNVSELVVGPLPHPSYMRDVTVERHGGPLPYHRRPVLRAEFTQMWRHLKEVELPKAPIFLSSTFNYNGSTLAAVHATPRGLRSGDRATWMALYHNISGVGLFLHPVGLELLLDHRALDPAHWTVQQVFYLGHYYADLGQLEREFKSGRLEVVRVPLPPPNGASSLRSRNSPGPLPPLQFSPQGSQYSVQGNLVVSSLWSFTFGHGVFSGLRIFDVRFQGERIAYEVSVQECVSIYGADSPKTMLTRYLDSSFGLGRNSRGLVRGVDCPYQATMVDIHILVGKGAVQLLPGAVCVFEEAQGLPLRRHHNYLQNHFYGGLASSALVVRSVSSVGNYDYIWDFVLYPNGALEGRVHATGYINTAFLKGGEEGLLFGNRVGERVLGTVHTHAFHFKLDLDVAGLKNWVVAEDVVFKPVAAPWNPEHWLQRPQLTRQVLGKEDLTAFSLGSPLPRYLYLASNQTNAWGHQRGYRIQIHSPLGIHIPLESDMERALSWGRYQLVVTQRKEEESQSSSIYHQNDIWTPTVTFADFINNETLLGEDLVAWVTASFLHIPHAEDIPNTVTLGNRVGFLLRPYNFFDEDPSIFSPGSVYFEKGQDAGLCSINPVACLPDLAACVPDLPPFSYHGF
The data set is described as follows: AOC2 enzyme activity assay. It is filed as biochemical.

The subject of another data set is BALB/c mice. The data set is described as follows: Klebsiella pneumoniae lung infection.
A further data set has as its system Swiss mice. Description: LPS airway inflammation, 24 hour time point. Particulars: 24 hours after LPS. Format: in vivo, mouse. As for the experimental part:
Given the short half-life of PXS-4728, a second dose was administered to ensure that newly synthesized SSAO would also be blocked.

The next data set can be described thus: Plasma stability. Format: in vitro ADME. Particulars: dog plasma, 1 hour incubation.
The target of data set [3] is T2, VAP-1/SSAO in gonadal fat tissue homogenate (Oryctolagus cuniculus, UniProt A0A5F9CS97).
T2 sequence (A0A5F9CS97 1-763): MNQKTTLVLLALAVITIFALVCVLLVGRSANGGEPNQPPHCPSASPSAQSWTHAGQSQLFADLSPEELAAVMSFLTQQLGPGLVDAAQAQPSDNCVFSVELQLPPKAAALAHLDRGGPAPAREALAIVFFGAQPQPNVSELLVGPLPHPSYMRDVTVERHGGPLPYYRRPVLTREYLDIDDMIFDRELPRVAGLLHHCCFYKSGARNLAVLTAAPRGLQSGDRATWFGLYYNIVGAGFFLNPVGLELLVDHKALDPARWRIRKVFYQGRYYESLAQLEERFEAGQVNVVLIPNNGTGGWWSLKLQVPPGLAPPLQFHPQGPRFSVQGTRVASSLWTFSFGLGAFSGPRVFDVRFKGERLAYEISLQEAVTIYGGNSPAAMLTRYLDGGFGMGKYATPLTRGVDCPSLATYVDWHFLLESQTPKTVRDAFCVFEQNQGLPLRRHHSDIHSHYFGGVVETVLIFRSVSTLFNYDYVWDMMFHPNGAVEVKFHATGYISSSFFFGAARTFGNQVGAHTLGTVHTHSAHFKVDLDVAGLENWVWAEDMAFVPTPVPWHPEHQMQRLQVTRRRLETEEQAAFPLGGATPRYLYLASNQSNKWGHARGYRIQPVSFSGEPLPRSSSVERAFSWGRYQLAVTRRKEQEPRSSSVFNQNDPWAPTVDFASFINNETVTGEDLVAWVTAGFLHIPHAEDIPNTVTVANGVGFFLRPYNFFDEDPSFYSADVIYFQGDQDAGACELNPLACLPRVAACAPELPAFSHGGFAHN
The data set is described as follows: SSAO activity, gonadal fat tissue homogenate. Format: biochemical. The following applies: rabbit.

The test system of data set [4] is HepG2 cells. Description: Phospholipidosis in HepG2 cells. Format: cell-based. The following applies: highest concentration tested 100 μM.
The test system of a further data set is C57/BL6 mice. The data set is described as follows: Cecal ligation and puncture (CLP) induced sepsis.
In data set [5] the target is T3, VAP-1/SSAO in gonadal fat tissue homogenate (Canis lupus familiaris, UniProt A0A8I3MYY3).
T3 sequence (A0A8I3MYY3 1-763): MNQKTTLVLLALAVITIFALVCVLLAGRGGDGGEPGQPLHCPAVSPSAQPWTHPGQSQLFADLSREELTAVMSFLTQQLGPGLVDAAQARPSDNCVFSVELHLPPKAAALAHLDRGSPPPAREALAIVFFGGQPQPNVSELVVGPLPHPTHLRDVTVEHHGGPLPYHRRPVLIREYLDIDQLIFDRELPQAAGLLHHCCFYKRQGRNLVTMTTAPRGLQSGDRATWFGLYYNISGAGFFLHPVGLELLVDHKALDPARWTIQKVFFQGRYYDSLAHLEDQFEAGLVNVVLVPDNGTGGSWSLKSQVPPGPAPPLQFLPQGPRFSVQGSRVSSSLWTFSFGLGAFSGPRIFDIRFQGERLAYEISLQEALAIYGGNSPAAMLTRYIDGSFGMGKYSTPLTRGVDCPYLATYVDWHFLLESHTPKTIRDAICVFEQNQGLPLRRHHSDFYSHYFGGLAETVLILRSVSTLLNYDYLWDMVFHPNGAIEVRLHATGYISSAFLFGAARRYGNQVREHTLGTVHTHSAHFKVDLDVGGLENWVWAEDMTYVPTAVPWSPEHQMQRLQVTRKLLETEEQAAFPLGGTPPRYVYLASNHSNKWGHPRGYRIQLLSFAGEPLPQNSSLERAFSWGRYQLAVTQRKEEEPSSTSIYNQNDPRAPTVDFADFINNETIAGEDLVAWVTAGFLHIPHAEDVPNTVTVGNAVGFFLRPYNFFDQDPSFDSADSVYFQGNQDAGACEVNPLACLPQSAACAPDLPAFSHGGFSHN
The data set is described as follows: SSAO activity, gonadal fat tissue homogenate. The following applies: dog. It is filed as biochemical.

Where [6] appears, read: 24 hours, PXS-4728A 6 mg.kg^−1, dexamethasone 10 mg.kg^−1, oral 1 hour prior to infection.
The mark [7] stands for this setting: 4 mg/kg pre-treatment, 6 mg/kg at 6 hours.
[8] abbreviates: 6 hours, 6 mg.kg^−1 oral 1 hour prior to surgery.
The mark [9] stands for this setting: 6 hours, PXS-4728A 6 mg.kg^−1, dexamethasone 5 mg.kg^−1, oral 1 hour prior to surgery.

Take `CC(C)(C)NC(=O)c1ccc(OC/C(=C/F)CN)cc1` [PXS-4728A]: the Cell toxicity result with HepG2 cells [1] is “does not induce cell toxicity”. Besides, the IC50 (usually the midpoint of a concentration-inhibition curve) in data set [2] worked out at 2760 nM. Besides, in the data set on BALB/c mice (setting [6]), the “Neutrophil migration into the airway spaces (BALF)” value is recorded as “significantly dampened” and the “Total leukocyte migration into the airway spaces (BALF)” value is “significantly dampened”. In addition, in the data set with BALB/c mice (24 hours, PXS-4728A 6 mg.kg^−1, dexamethasone 10 mg.kg^−1, vehicle 7.59), the “Log 10-CFU in the lung (bacterial load), average” value was 8.27 LOG 10-CFU. Also, the Survival result in the data set on BALB/c mice (treated 1 hour prior to infection and daily thereafter) is “not compromised”. In the data set on Swiss mice, the Circulating neutrophils entry was “had no effect” and the “Total cells in blood” value was “had no effect”. In the data set with Swiss mice (setting [7]), the “Influx of neutrophils in BALF” value was “reduced” and the “Influx of total cells in BALF” value is given as “reduced”. Further, the “Plasma stability, remaining” value in the data set “Plasma stability” is given as more than 90%. This compound displayed an IC50 in [3] of less than 10 nM. Also, the Phospholipidosis result with HepG2 cells [4] is listed as “does not induce”. Moreover, in the data set on C57/BL6 mice (setting [8]), the “Myeloperoxidase in the lung” value was “reduction”, the “Neutrophils in bronchoalveolar lavage” value is reported as “reduction” and the “Total cells in bronchoalveolar lavage” value is reported as “reduction”. In addition, in the data set on C57/BL6 mice (setting [9]), the Peritoneal neutrophils entry is reported as “not affected” and the “Total peritoneal inflammatory cells” value is “not affected”. For the same compound, the Survival rate in the data set on C57/BL6 mice (treated 1 hour prior and daily thereafter, control animals 50%, p = 0.057) worked out at 90%. The compound also yielded an IC50 in data set [5] of less than 10 nM.
